For experiment [1], the target named is T1, human M3 muscarinic receptor (Homo sapiens, UniProt P20309).
T1 construct: expressed in transfected cells; host or cells: CHO-K1
Nature of the experiment: Inhibitory effect on methacholine-induced calcium influx, FLIPR assay, CHO-K1 cells stably expressing the human M3 muscarinic receptor. The note with it: inhibition of calcium influx induced by methacholine. In kind it is cell-based. The source says: Muscarinic receptor subtypes (M1, M3 and M5 receptors), which couple to Gq proteins, activate the phospholipase C (PLC) pathway upon agonist binding to the receptor. As a result, the activated PLC hydrolyzes phosphatidyl inositol diphosphate (PIP2) to diacyl glycerol (DAG) and […] (IP3), which in turn generates calcium release from intracellular stores, i.e., endoplasmic and sarcoplasmic reticula. By utilizing FLIPR (Molecular Devices, Inc.) assay in which a calcium sensitive dye (Component A) is used that fluoresces when free calcium binds, the increase in intracellular calcium is measured on the basis of the change in the fluorescence intensity.
Methacholine was added to CHO-K1 cells stably expressing the human M3 muscarinic receptor to induce calcium influx and evaluate the inhibitory effect of test compounds. In the experiment, a FLIPR Calcium assay kit (Molecular Devices, Inc.) was used.
CHO-K1 cells stably expressing the human M3 muscarinic receptor suspended in Ham's F-12 media (Invitrogen, Co.) containing 10% fetal bovine serum (FBS) were seeded into 96-well FLIPR plates at a volume of 100 μL/well. Next day, 60 μL/well of Non-wash-dye solution (Hank's buffered salt solution, HBSS, containing 20 mM HEPES and 6.5 mM probenecid) was added to the cells, which were then incubated for an hour at 37° C. in the presence of 5% carbon dioxide. 20 μL of 10 concentrations of test compound solutions (HBSS containing 1% DMSO, 20 mM HEPES, 2.5 mM probenecid and 0.05% bovine serum albumin, BSA) prepared at concentrations in a range of 0.01-1000 nM with 2-fold serial dilution) were added, followed by incubation for 180 seconds. Then, 20 μL of 30 nM methacholine solution (HBSS containing 20 mM HEPES, 2.5 mM probenecid and 0.05% bovine serum albumin, BSA) was added, and fluorescence intensity was traced by the intracellular calcium influx measuring device FLIPR 96 (Molecular Devices, Inc.) for 170 seconds. The difference between the lowest and the highest values of the fluorescence intensity (FI) over the period of the measurement was used as a measured value. The percentages of inhibition by the test compounds were calculated according to the following formula from the measured value of the methacholin-added and test compound non-added sample (FIpositive), the measured value of the methacholin non-added and test compound non-added sample (FInegative), and the measured value of the methacholin-added and test compound-added sample (FItest). (%) Percentage of inhibition by test compound=[(1−(FItest−FInegative)/(FIpositive−FInegative)]×100
The 50% inhibitory concentrations (IC50 values) of test compounds were analyzed by a four-parameter logistic model using XLfit4 (IDBS, Ltd.) for the percentage of the inhibition by different concentrations of test compounds.

The target of experiment [2] is T2, human β2 adrenergic receptor (Homo sapiens, UniProt P07550).
T2 construct: expressed in transfected cells; host or cells: CHO-K1
Briefly: Whole-cell cAMP Flashplate assay using CHO-K1 cells stably expressing human β2 adrenergic receptor. In kind it is cell-based. The settings on record: cAMP production. The protocol:
The β2 adrenergic receptor, which couples to Gs proteins, activates adenylate cyclase upon agonist binding to the receptor. As a result, cAMP is produced in cells. The activation ability of the β2 adrenergic receptor can be measured by measuring the amount of the cAMP with cAMP-Screen System (Applied Biosystems).
CHO-K1 cells expressing the human β2 adrenergic receptor suspended in Ham's F-12 media containing 10% FBS were seeded into 96-well plates at a volume of 100 μL/well. Next day, they were washed with 200 μL PBS(−), to which 80 μL of 0.5 mM IBMX solution (Ham's F-12 media containing 0.05% BSA) was then added, followed by incubation for 20 minutes at 37° C. in the presence of 5% carbon dioxide. 20 μL of 9 concentrations of test compound solutions (0.5 mM IBMX solution containing 1% DMSO) prepared at concentrations in a range of 0.01-1000 nM with 2-fold serial dilution) were added, followed by incubation for 20 minutes at 37° C. in the presence of 5% carbon dioxide. Then, 100 μL of Assay/Lysis Buffer (a reagent that comes with cAMP Screen System) was added. The cells were lysed by pipetting, further incubated for 30 minutes at 37° C., and then frozen at −80° C. After several days, samples, thawed at room temperature, were treated according to the protocol of cAMP Screen System, and then chemiluminescence was measured by EnVision (PerkinElmer, Inc.). The amount of cAMP was calculated from the standard curve for the standard attached to cAMP Screen System.
The concentrations of a test compound at which 50% of its maximal effect is reached (EC50 values) were analyzed by a four-parameter logistic model using XLfit4 (IDBS, Ltd.) for the amounts of cAMP production at different concentrations of the test compounds.
In general terms: cAMP levels reflect the balance of adenylyl cyclase and phosphodiesterase activity.

Each structure is given as a SMILES string. Counter-ions that a name gives are not always drawn.

T1 sequence (P20309 whole entry): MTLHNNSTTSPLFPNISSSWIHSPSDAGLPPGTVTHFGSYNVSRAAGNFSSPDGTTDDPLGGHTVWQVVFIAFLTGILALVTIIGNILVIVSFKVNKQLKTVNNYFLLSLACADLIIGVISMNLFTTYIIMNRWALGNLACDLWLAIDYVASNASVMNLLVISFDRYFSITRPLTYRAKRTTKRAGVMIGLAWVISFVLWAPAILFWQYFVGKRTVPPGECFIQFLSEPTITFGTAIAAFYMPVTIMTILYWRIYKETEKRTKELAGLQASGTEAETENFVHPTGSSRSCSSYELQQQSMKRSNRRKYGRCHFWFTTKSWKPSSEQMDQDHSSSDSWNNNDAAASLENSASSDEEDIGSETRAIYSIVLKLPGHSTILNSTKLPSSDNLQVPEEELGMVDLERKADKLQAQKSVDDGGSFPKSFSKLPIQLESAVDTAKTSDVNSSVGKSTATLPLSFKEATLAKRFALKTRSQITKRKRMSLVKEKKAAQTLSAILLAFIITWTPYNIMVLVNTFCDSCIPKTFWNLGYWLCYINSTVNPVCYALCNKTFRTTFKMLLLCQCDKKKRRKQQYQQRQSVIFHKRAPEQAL
T2 sequence (P07550 whole entry): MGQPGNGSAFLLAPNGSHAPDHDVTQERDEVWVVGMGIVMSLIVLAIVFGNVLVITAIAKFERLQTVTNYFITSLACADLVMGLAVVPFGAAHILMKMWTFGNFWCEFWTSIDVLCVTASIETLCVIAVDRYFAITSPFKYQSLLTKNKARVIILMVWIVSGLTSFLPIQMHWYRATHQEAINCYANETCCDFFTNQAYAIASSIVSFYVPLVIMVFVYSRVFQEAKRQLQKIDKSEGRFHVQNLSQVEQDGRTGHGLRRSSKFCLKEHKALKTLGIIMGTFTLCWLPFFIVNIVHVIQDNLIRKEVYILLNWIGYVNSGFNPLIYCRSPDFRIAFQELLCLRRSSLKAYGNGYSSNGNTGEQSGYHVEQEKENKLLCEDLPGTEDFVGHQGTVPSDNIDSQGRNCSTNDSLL

On to `C[N+]1(C)CCC(OC(=O)Nc2cc(CCC(=O)Nc3ccc(CNC[C@H](O)c4ccc(O)c5[nH]c(=O)ccc45)cn3)ccc2-c2ccccc2)CC1` [Example 17, 4-({[5-(2-{[5-({[(2R)-2-hydroxy-2-(8-hydroxy-2-oxo-1,2-dihydroquinolin-5-yl)ethyl]amino}methyl)pyridin-2-yl]carbamoyl}ethyl)-2-phenylphenyl]carbamoyl}oxy)-1,1-dimethylpiperidin-1-ium trifluoroacetate], for which the IC50 (in general, the midpoint of a concentration-inhibition curve) in experiment [1] is 0.0114 µM. In addition, the midpoint of the response in experiment [2], the EC50, lay at 0.0059 µM.
In the case of `COc1cc(CNC[C@H](O)c2ccc(O)c3[nH]c(=O)ccc23)ccc1NC(=O)CCCc1ccc(-c2ccccc2)c(NC(=O)OC2CC[N+](C)(C)CC2)c1` [Example 21, 4-({[5-(3-{[4-({[(2R)-2-hydroxy-2-(8-hydroxy-2-oxo-1,2-dihydroquinolin-5-yl)ethyl]amino}methyl)-2-methoxyphenyl]carbamoyl}propyl)-2-phenylphenyl]carbamoyl}oxy)-1,1-dimethylpiperidin-1-ium trifluoroacetate], the half-maximal inhibitory concentration (IC50) in experiment [1] was determined as 0.0168 µM. A half-maximal response in experiment [2] (EC50) required 0.0038 µM.
The corresponding values for `Cc1cc(CNC[C@H](O)c2ccc(O)c3[nH]c(=O)ccc23)ccc1NC(=O)CCCc1ccc(-c2ccccc2)c(NC(=O)OC2CC[N+](C)(C)CC2)c1` [Example 22, 4-({[5-(3-{[4-({[(2R)-2-hydroxy-2-(8-hydroxy-2-oxo-1,2-dihydroquinolin-5-yl)ethyl]amino}methyl)-2-methylphenyl]carbamoyl}propyl)-2-phenylphenyl]carbamoyl}oxy)-1,1-dimethylpiperidin-1-ium trifluoroacetate] are 0.0158 µM and 0.0022 µM.
The corresponding values for `C[N+]1(C)CCC(OC(=O)Nc2cc(CCCC(=O)Nc3ccc4cc(CNC[C@H](O)c5ccc(O)c6[nH]c(=O)ccc56)ccc4c3)ccc2-c2ccccc2)CC1` [Example 23, 4-({[5-(3-{[6-({[(2R)-2-hydroxy-2-(8-hydroxy-2-oxo-1,2-dihydroquinolin-5-yl)ethyl]amino}methyl)naphthalen-2-yl]carbamoyl}propyl)-2-phenylphenyl]carbamoyl}oxy)-1,1-dimethylpiperidin-1-ium trifluoroacetate] are 0.0343 µM and 0.0026 µM.
The corresponding values for `C[N+]1(C)CCC(OC(=O)Nc2cc(CCCC(=O)Nc3ccc(CNC[C@H](O)c4ccc(O)c5[nH]c(=O)ccc45)cn3)ccc2-c2ccccc2)CC1` [Example 24, 4-({[5-(3-{[5-({[(2R)-2-hydroxy-2-(8-hydroxy-2-oxo-1,2-dihydroquinolin-5-yl)ethyl]amino}methyl)pyridin-2-yl]carbamoyl}propyl)-2-phenylphenyl]carbamoyl}oxy)-1,1-dimethylpiperidin-1-ium trifluoroacetate] are 0.0117 µM and 0.0066 µM.
In the case of `CCOc1cc(NC(=O)CCCc2ccc(-c3ccccc3)c(NC(=O)OC3CC[N+](C)(C)CC3)c2)c(Cl)cc1CNC[C@H](O)c1ccc(O)c2[nH]c(=O)ccc12` [Example 26, 4-({[5-(3-{[2-chloro-5-ethoxy-4-({[(2R)-2-hydroxy-2-(8-hydroxy-2-oxo-1,2-dihydroquinolin-5-yl)ethyl]amino}methyl)phenyl]carbamoyl}propyl)-2-phenylphenyl]carbamoyl}oxy)-1,1-dimethylpiperidin-1-ium trifluoroacetate], the IC50 in experiment [1] is 0.0232 µM. For the same compound, the response in experiment [2] was half-maximal at 0.0009 µM (EC50).
Taken in the same sequence, the figures for `CCOc1cc(NC(=O)CCCc2ccc(-c3ccccc3)c(NC(=O)OC3CC[N+](C)(C)CC3)c2)ccc1CNC[C@H](O)c1ccc(O)c2[nH]c(=O)ccc12` [Example 27, 4-({[5-(3-{[5-ethoxy-4-({[(2R)-2-hydroxy-2-(8-hydroxy-2-oxo-1,2-dihydroquinolin-5-yl)ethyl]amino}methyl)phenyl]carbamoyl}propyl)-2-phenylphenyl]carbamoyl}oxy)-1,1-dimethylpiperidin-1-ium trifluoroacetate] were 0.0161 µM and 0.0015 µM.
Taken in the same sequence, the figures for `C[N+]1(C)CCC(OC(=O)Nc2cc(CCCC(=O)Nc3ccc(CNC[C@H](O)c4ccc(O)c5[nH]c(=O)ccc45)cc3F)ccc2-c2ccccc2)CC1` [Example 28, 4-({[5-(3-{[2-fluoro-4-({[(2R)-2-hydroxy-2-(8-hydroxy-2-oxo-1,2-dihydroquinolin-5-yl)ethyl]amino}methyl)phenyl]carbamoyl}propyl)-2-phenylphenyl]carbamoyl}oxy)-1,1-dimethylpiperidin-1-ium trifluoroacetate] were 0.01 µM and 0.0007 µM.
The corresponding values for `C[N+]1(C)CCC(OC(=O)Nc2cc(CCCC(=O)Nc3ccc(CNC[C@H](O)c4ccc(O)c5[nH]c(=O)ccc45)c(Cl)c3)ccc2-c2ccccc2)CC1` [Example 29, 4-({[5-(3-{[3-chloro-4-({[(2R)-2-hydroxy-2-(8-hydroxy-2-oxo-1,2-dihydroquinolin-5-yl)ethyl]amino}methyl)phenyl]carbamoyl}propyl)-2-phenylphenyl]carbamoyl}oxy)-1,1-dimethylpiperidin-1-ium trifluoroacetate] are 0.0136 µM and 0.0048 µM.
`C[N+]1(C)CCC(OC(=O)Nc2cc(CCCC(=O)Nc3ccc(CNC[C@H](O)c4ccc(O)c5[nH]c(=O)ccc45)cc3Br)ccc2-c2ccccc2)CC1` [Example 30, 4-({[5-(3-{[2-bromo-4-({[(2R)-2-hydroxy-2-(8-hydroxy-2-oxo-1,2-dihydroquinolin-5-yl)ethyl]amino}methyl)phenyl]carbamoyl}propyl)-2-phenylphenyl]carbamoyl}oxy)-1,1-dimethylpiperidin-1-ium trifluoroacetate]: the IC50 in experiment [1] amounted to 0.0129 µM. For the same compound, a half-maximal effect in experiment [2] (EC50) was put at 0.0005 µM.
For the compound `C[N+]1(C)CCC(OC(=O)Nc2cc(CCCC(=O)Nc3ccc(CNC[C@H](O)c4ccc(O)c5[nH]c(=O)ccc45)c(C(F)(F)F)c3)ccc2-c2ccccc2)CC1` [Example 31, 4-({[5-(3-{[4-({[(2R)-2-hydroxy-2-(8-hydroxy-2-oxo-1,2-dihydroquinolin-5-yl)ethyl]amino}methyl)-3-(trifluoromethyl)phenyl]carbamoyl}propyl)-2-phenylphenyl]carbamoyl}oxy)-1,1-dimethylpiperidin-1-ium trifluoroacetate], the half-maximal inhibitory concentration (IC50) in experiment [1] was 0.0157 µM. Moreover, in experiment [2], the concentration giving a half-maximal response (EC50) (usually the concentration needed to bring the measured effect to its halfway point) is 0.0251 µM.
The corresponding values for `C[N+]1(C)CCC(OC(=O)Nc2cc(CCCC(=O)Nc3ccc(CNC[C@H](O)c4ccc(O)c5[nH]c(=O)ccc45)cc3)ccc2-c2ccccc2)CC1` [Example 32, 4-({[5-(3-{[4-({[(2R)-2-hydroxy-2-(8-hydroxy-2-oxo-1,2-dihydroquinolin-5-yl)ethyl]amino}methyl)phenyl]carbamoyl}propyl)-2-phenylphenyl]carbamoyl}oxy)-1,1-dimethylpiperidin-1-ium trifluoroacetate] are 0.0161 µM and 0.0084 µM.
